3 molecules from article PMC10569896, “Molecular Investigation of the Antitumor Effects of Monoamine Oxidase Inhibitors in Breast Cancer Cells” (BioMed Research International, 2023) can be followed below.

One experiment has as its system T-47D. Nature of the experiment: cells. Also noted: MTT cell viability assay, antiproliferative IC50 in T-47D breast cancer cells. The note with it: Homo sapiens, T47D, 48 h. Here is the method: (§1) To assess the effect of MAO-AIs on the survival and proliferation of breast cancer cells, MTT colorimetric analysis was performed as previously described. MDA-MB-231 and T47D cells were seeded into a 96-well plate, at a different seeding density per well depending on proliferation ability, doubling time, and target time of treatment. Then, cells were maintained at 37°C in a humidified 5% CO2 atmosphere. Cell viability was calculated as follows: cell viability (%) = [(optical density of viable cells in the test group)/optical density of viable cells in the negative control group] × 100%. Experiments were run at least 2-3 times independently. […] The ratio of IC50 for each drug alone guided the selection of an appropriate combination ratio. As described earlier, the MTT test was used to determine cell viability after treatment time elapsed (48 hours). CompuSyn software (ComboSyn Inc., Paramus, NJ, USA) was used to determine the combination index (CI), which is based on Chou-Talalay's combination index theorem, and its formula is the sum of the ratio of the dose of each drug in the compound to the dose when used alone when the combination and compound produce 50% efficacy. CI values < 1, =1, and > 1 indicate synergism, additive, and antagonistic effects, respectively, as shown in Equation (1). In this study, MTT assay was performed after exposing MDA-MB-231 and T-47d cell lines to increasing concentrations of MAO-A inhibitors for either 24, 48, or 72 h. […] Breast cancer cell lines, T-47D and MDA-MB-231 cells, were purchased from American Type Culture Collection (ATCC, USA). Cells were cultured in DMEM high glucose culture medium supplemented with 10% fetal bovine serum (FBS), 2 mM L-glutamine, 100 U/mL penicillin, and 0.1 mg/mL streptomycin. Cells were maintained in a humidified controlled temperature incubator set at 37°C, 95% humidity, and 5% CO2.

The next experiment deals with MDA-MB-231. Nature of the experiment: cells. Also noted: MTT cell viability assay, antiproliferative IC50 in MDA-MB-231 breast cancer cells. Particulars: Homo sapiens, MDA-MB-231, 48 h. As for the experimental part:
as §1

On to `COc1cccc2c1C(=O)c1c(O)c3c(c(O)c1C2=O)C[C@@](O)(C(=O)CO)C[C@@H]3O[C@H]1C[C@H](N)[C@H](O)[C@H](C)O1` [Doxorubicin], for which the IC50 was determined as 2.2 µM with T-47D and 2 µM with MDA-MB-231.
`O=C(c1ccc(OCCN2CCCCC2)cc1)c1c(-c2ccc(O)cc2)sc2cc(O)ccc12` [Raloxifene]: the IC50 with T-47D is 28 µM; with MDA-MB-231, 27 µM.
Regarding `C#CCN(C)CCCOc1ccc(Cl)cc1Cl` [J19, clorgyline], the IC50 in the experiment on T-47D came to 157 µM; in the experiment on MDA-MB-231 it was 163 µM.
